The record followed here is patent US20040142048A1, “Compositions based on proanthocyanadin-catechin synergies for prevention and treatment of cancer” (priority 2004, published 2004).

For series [1], the system named is cancer cells. Nature of the series: Effect of EGCg on cancer cell growth and apoptosis. The class given is cell-based.
Series [2] can be described thus: Clearance of EGCg from the blood. The settings on record: in vivo.

As for (−)-epigallocatechin gallate [EGCg], the “time cancer cells must be inhibited from growing before EGCg-induced apoptosis occurs” value in series [1] lay within 48 to 72 h. Besides, the “growth of cancer cells challenged with EGCg” value in series [1] (10^−7 M EGCg every two hours during the day) is on record as “growth is inhibited”. For the same substance, in series [1] (EGCg removed, cells resume normal rates of growth), the “reversibility of the effect on cancer cell growth” value is “reversible”. The “clearance from the blood” value in series [2] was “rapidly cleared from the blood and metabolized”.
